Experimental data reported in PubChem BioAssay (NCI).
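Five compound concentrations were applied to cells in 96-well plates for 48 hours; endpoints were derived by simple linear interpolation of the resulting dose-response curve. The concentration for full growth arrest is given as TGI.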

Tests used:
Test in all cases: NCI tumour cell line growth inhibition, 48 h
DU-145 prostate = tested on: DU-145 prostate
NCI/ADR-RES ovarian = tested on: NCI/ADR-RES ovarian
SN12C renal = tested on: SN12C renal
SF-539 CNS = tested on: SF-539 CNS
MDA-MB-435 = tested on: MDA-MB-435
U251 CNS = tested on: U251 CNS
TK-10 renal = tested on: TK-10 renal
K-562 leukemia = tested on: K-562 leukemia
OVCAR-8 ovarian = tested on: OVCAR-8 ovarian
HCT-116 colon = tested on: HCT-116 colon
SR leukemia = tested on: SR leukemia
SW-620 colon = tested on: SW-620 colon
M14 melanoma = tested on: M14 melanoma
MCF7 breast = tested on: MCF7 breast
UACC-62 melanoma = tested on: UACC-62 melanoma
A549 NSCLC = tested on: A549 NSCLC
SK-MEL-28 melanoma = tested on: SK-MEL-28 melanoma
SK-OV-3 ovarian = tested on: SK-OV-3 ovarian
NCI-H23 lung = tested on: NCI-H23 lung
786-0 renal = tested on: 786-0 renal
OVCAR-4 ovarian = tested on: OVCAR-4 ovarian
NCI-H226 lung = tested on: NCI-H226 lung
SNB-75 CNS = tested on: SNB-75 CNS
HS 578T breast = tested on: HS 578T breast
SF-295 CNS = tested on: SF-295 CNS
MDA-N = tested on: MDA-N
NCI-H460 lung = tested on: NCI-H460 lung
SNB-19 CNS = tested on: SNB-19 CNS
EKVX NSCLC = tested on: EKVX NSCLC
SF-268 CNS = tested on: SF-268 CNS
COLO 205 colon = tested on: COLO 205 colon
NCI-H522 lung = tested on: NCI-H522 lung
MALME-3M melanoma = tested on: MALME-3M melanoma
CCRF-CEM leukemia = tested on: CCRF-CEM leukemia
ACHN renal = tested on: ACHN renal
SK-MEL-5 melanoma = tested on: SK-MEL-5 melanoma
UACC-257 melanoma = tested on: UACC-257 melanoma
MOLT-4 leukemia = tested on: MOLT-4 leukemia
OVCAR-5 ovarian = tested on: OVCAR-5 ovarian
IGROV1 ovarian = tested on: IGROV1 ovarian
OVCAR-3 ovarian = tested on: OVCAR-3 ovarian
T-47D breast = tested on: T-47D breast
A498 renal = tested on: A498 renal
BT-549 breast = tested on: BT-549 breast
PC-3 prostate = tested on: PC-3 prostate
KM12 colon = tested on: KM12 colon
HCT-15 colon = tested on: HCT-15 colon
CAKI-1 renal = tested on: CAKI-1 renal
LOX IMVI melanoma = tested on: LOX IMVI melanoma
UO-31 renal = tested on: UO-31 renal
MDA-MB-231 breast = tested on: MDA-MB-231 breast
SK-MEL-2 melanoma = tested on: SK-MEL-2 melanoma
HOP-62 NSCLC = tested on: HOP-62 NSCLC
HL-60(TB) leukemia = tested on: HL-60(TB) leukemia
HOP-92 NSCLC = tested on: HOP-92 NSCLC
HT29 colon = tested on: HT29 colon
HCC-2998 colon = tested on: HCC-2998 colon
RXF 393 renal = tested on: RXF 393 renal
RPMI-8226 leukemia = tested on: RPMI-8226 leukemia

NCCNC(=O)CN(CC(=O)O)C1CCCCC1N(CC(=O)O)CC(=O)O (stereo not drawn)
TGI (DU-145 prostate): > 100 µM
TGI (NCI/ADR-RES ovarian): > 100 µM
TGI (SN12C renal): > 100 µM
TGI (SF-539 CNS): > 100 µM
TGI (MDA-MB-435): > 100 µM
TGI (U251 CNS): > 100 µM
TGI (TK-10 renal): > 100 µM
TGI (K-562 leukemia): > 100 µM
TGI (OVCAR-8 ovarian): > 100 µM
TGI (HCT-116 colon): > 100 µM
TGI (SR leukemia): > 100 µM
TGI (SW-620 colon): > 100 µM
TGI (M14 melanoma): > 100 µM
TGI (MCF7 breast): > 100 µM
TGI (UACC-62 melanoma): > 100 µM
TGI (A549 NSCLC): > 100 µM
TGI (SK-MEL-28 melanoma): > 100 µM
TGI (SK-OV-3 ovarian): > 100 µM
TGI (NCI-H23 lung): > 100 µM
TGI (786-0 renal): > 100 µM
TGI (OVCAR-4 ovarian): > 100 µM
TGI (NCI-H226 lung): > 100 µM
TGI (SNB-75 CNS): 94.9 µM
TGI (HS 578T breast): > 100 µM
TGI (SF-295 CNS): > 100 µM
TGI (MDA-N): > 100 µM
TGI (NCI-H460 lung): > 100 µM
TGI (SNB-19 CNS): > 100 µM
TGI (EKVX NSCLC): > 100 µM
TGI (SF-268 CNS): > 100 µM
TGI (COLO 205 colon): > 100 µM
TGI (NCI-H522 lung): > 100 µM
TGI (MALME-3M melanoma): > 100 µM
TGI (CCRF-CEM leukemia): > 100 µM
TGI (ACHN renal): > 100 µM
TGI (SK-MEL-5 melanoma): > 100 µM
TGI (UACC-257 melanoma): > 100 µM
TGI (MOLT-4 leukemia): > 100 µM
TGI (OVCAR-5 ovarian): > 100 µM
TGI (IGROV1 ovarian): > 100 µM
TGI (OVCAR-3 ovarian): > 100 µM
TGI (T-47D breast): > 100 µM
TGI (A498 renal): > 100 µM
TGI (BT-549 breast): > 100 µM
TGI (PC-3 prostate): > 100 µM
TGI (KM12 colon): > 100 µM
TGI (HCT-15 colon): > 100 µM
TGI (CAKI-1 renal): > 100 µM
TGI (LOX IMVI melanoma): > 100 µM
TGI (UO-31 renal): > 100 µM
TGI (MDA-MB-231 breast): > 100 µM
TGI (SK-MEL-2 melanoma): > 100 µM
TGI (HOP-62 NSCLC): > 100 µM
TGI (HL-60(TB) leukemia): > 100 µM
TGI (HOP-92 NSCLC): > 100 µM
TGI (HT29 colon): > 100 µM
TGI (HCC-2998 colon): > 100 µM

CN(C)N=Nc1ccc2[nH]c(=O)[nH]c2c1
TGI (DU-145 prostate): > 100 µM
TGI (NCI/ADR-RES ovarian): > 100 µM
TGI (SN12C renal): > 100 µM
TGI (SF-539 CNS): > 100 µM
TGI (MDA-MB-435): > 100 µM
TGI (U251 CNS): > 100 µM
TGI (TK-10 renal): > 100 µM
TGI (K-562 leukemia): > 100 µM
TGI (OVCAR-8 ovarian): > 100 µM
TGI (HCT-116 colon): > 100 µM
TGI (SW-620 colon): > 100 µM
TGI (M14 melanoma): > 100 µM
TGI (MCF7 breast): > 100 µM
TGI (UACC-62 melanoma): > 100 µM
TGI (A549 NSCLC): > 100 µM
TGI (SK-MEL-28 melanoma): > 100 µM
TGI (SK-OV-3 ovarian): > 100 µM
TGI (NCI-H23 lung): > 100 µM
TGI (786-0 renal): > 100 µM
TGI (OVCAR-4 ovarian): > 100 µM
TGI (NCI-H226 lung): > 100 µM
TGI (SNB-75 CNS): > 100 µM
TGI (HS 578T breast): > 100 µM
TGI (SF-295 CNS): > 100 µM
TGI (MDA-N): > 100 µM
TGI (NCI-H460 lung): > 100 µM
TGI (SNB-19 CNS): > 100 µM
TGI (EKVX NSCLC): > 100 µM
TGI (SF-268 CNS): > 100 µM
TGI (COLO 205 colon): > 100 µM
TGI (RXF 393 renal): > 100 µM
TGI (NCI-H522 lung): > 100 µM
TGI (MALME-3M melanoma): > 100 µM
TGI (CCRF-CEM leukemia): > 100 µM
TGI (ACHN renal): > 100 µM
TGI (SK-MEL-5 melanoma): > 100 µM
TGI (UACC-257 melanoma): > 100 µM
TGI (RPMI-8226 leukemia): > 100 µM
TGI (OVCAR-5 ovarian): > 100 µM
TGI (IGROV1 ovarian): > 100 µM
TGI (OVCAR-3 ovarian): > 100 µM
TGI (T-47D breast): > 100 µM
TGI (A498 renal): > 100 µM
TGI (BT-549 breast): > 100 µM
TGI (PC-3 prostate): > 100 µM
TGI (KM12 colon): > 100 µM
TGI (HCT-15 colon): > 100 µM
TGI (CAKI-1 renal): > 100 µM
TGI (LOX IMVI melanoma): > 100 µM
TGI (UO-31 renal): > 100 µM
TGI (MDA-MB-231 breast): > 100 µM
TGI (SK-MEL-2 melanoma): > 100 µM
TGI (HOP-62 NSCLC): > 100 µM
TGI (HL-60(TB) leukemia): 83.7 µM
TGI (HT29 colon): > 100 µM
TGI (HCC-2998 colon): > 100 µM
